Laboratory results taken from patent US8163771B2, “11 β-HSD1 modulators” (Exelixis, Inc., priority 2008, dated 2012).

Molecular target: T1, recombinant human 11 β-HSD1 (Homo sapiens, UniProt P28845)
T1 construct: made in house; host or cells: E. coli
Experiment: 11 β-HSD1 SPA Assay (Scintillation Proximity Assay)
Format: biochemical
In short: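 E. coli-expressed human enzyme (30-100 nM) with tritiated cortisone 40 nM and NADPH 1 mM in HEPES buffer pH7.4, 2 hours at room temperature. Stopped with protein A SPA beads carrying anti-cortisol antibody and glycyrrhetinic acid; counted after overnight incubation. IC50 from percent inhibition between no-enzyme and no-compound signals.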

T1 sequence (P28845 whole entry): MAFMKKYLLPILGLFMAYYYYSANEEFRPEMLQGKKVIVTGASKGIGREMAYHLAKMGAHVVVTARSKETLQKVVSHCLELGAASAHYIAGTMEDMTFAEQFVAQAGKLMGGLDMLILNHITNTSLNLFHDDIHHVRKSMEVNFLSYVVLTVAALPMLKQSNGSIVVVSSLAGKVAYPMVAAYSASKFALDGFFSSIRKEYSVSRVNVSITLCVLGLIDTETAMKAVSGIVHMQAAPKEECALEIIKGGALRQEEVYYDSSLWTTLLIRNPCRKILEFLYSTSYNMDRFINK

Question: How did the IC50 turn out when CC(Oc1ccccc1)C(=O)N[C@H]1C[C@H]2CC[C@@H](C1)N2c1ccc(C(=O)NC2CC2)cn1 (stereo partly drawn) [Example 48, N-cyclopropyl-6-(3-endo-{[2-(phenyloxy)propanoyl]amino}-8-azabicycio[3.2.1]oct-8-yl)pyridine-3-carboxamide] was run?
Answer: Its IC50 is < 2000 nM.

Question: For CC(C)(Oc1ccc(Cl)cc1C(F)F)C(=O)N[C@H]1C[C@H]2CC[C@@H](C1)N2c1ccc(C(=O)NC2(CO)CC2)cn1 [Example 403, 6-(3-endo-(2-(4-chloro-2-(difluoromethyl)phenoxy)-2-methylpropanamido)-8-azabicyclo[3.2.1]octan-8-yl)-N-(1-(hydroxymethyl)cyclopropyl) nicotinamide], which IC50 is on record?
Answer: Its IC50 is < 200 nM.

Question: CC(C)(Oc1cc(Cl)c(CO)cc1Cl)C(=O)N[C@H]1C[C@H]2CC[C@@H](C1)N2c1ccc(C(=O)NCC(F)F)cn1 [Example 464, 6-[3-endo-({2-[2,5-dichloro-4-(hydroxymethyl)phenoxy]-2-methylpropanoyl}amino)-8-azabicyclo[3.2.1]oct-8-yl]-N-(2,2-difluoroethyl)pyridine-3-carboxamide] was tested. Which IC50 did it give?
Answer: Its IC50 is < 200 nM.

Question: Which IC50 does the source give for CC(C)(Oc1cc(F)c(F)cc1Cl)C(=O)N[C@H]1C[C@H]2CC[C@@H](C1)N2c1ccc(C(=O)NCC(F)(F)F)cn1 [Example 75, 6-[3-endo-({2-[(2-chloro-4,5-difluorophenyl)oxy]-2-methylpropanoyl}amino)-8-azabicyclo[3.2.1]oct-8-yl]-N-(2,2,2-trifluoroethyl)pyridine-3-carboxamide] here?
Answer: Its IC50 is < 200 nM.

Question: Which IC50 does the source give for CC(C)(Oc1cc(F)ccc1C(F)(F)F)C(=O)N[C@H]1C[C@H]2CC[C@@H](C1)N2c1ccc(S(C)(=O)=O)cn1 [Example 267, 2-{[5-fluoro-2-(trifluoromethyl)phenyl]oxy}-2-methyl-N-{8-[5-(methylsulfonyl)pyridin-2-yl]-8-azabicyclo[3.2.1]oct-3-endo-yl}propanamide] here?
Answer: Its IC50 is < 200 nM.

Question: For CC(C)(Oc1cc(Cl)c(F)cc1Cl)C(=O)N[C@H]1C[C@H]2CC[C@@H](C1)N2c1ccc(NS(C)(=O)=O)cn1 [Example 270, 2-[(2,5-dichloro-4-fluorophenyl)oxy]-2-methyl-N-(8-{5-[(methylsulfonyl)amino]pyridin-2-yl}-8-azabicyclo[3.2.1]oct-3-endo-yl)propanamide], which IC50 is on record?
Answer: Its IC50 is < 200 nM.

Question: How did the IC50 turn out when CC(C)(Oc1ccc(Cl)cc1C(F)(F)F)C(=O)NC1CC2CCC(C1)N2c1ccc(C(=O)NCC(O)C(F)(F)F)cn1 (stereo not drawn) [Example 458, 6-[3-endo-({2-[4-chloro-2-(trifluoromethyl)phenoxy]-2-methylpropanoyl}amino)-8-azabicyclo[3.2.1]oct-8-yl]-N-(3,3,3-trifluoro-2-hydroxypropyl)pyridine-3-carboxamide] was run?
Answer: Its IC50 is < 200 nM.

Question: How did the IC50 turn out when CC(C)(Oc1ccc(F)cc1F)C(=O)N[C@H]1C[C@H]2CC[C@@H](C1)N2c1ccc(S(C)(=O)=O)cc1 [Example 224, 2-[(2,4-difluorophenyl)oxy]-2-methyl-N-{8-[4-(methylsulfonyl)phenyl]-8-azabicyclo[3.2.1]oct-3-endo-yl}propanamide] was run?
Answer: The IC50 was < 200 nM.

Question: For CC(C)(Oc1ncc(Cl)cc1F)C(=O)N[C@H]1C[C@H]2CC[C@@H](C1)N2c1ccc(C(=O)NCC(F)(F)F)cn1 [Example 127, 6-[3-endo-({2-[(5-chloro-3-fluoropyridin-2-yl)oxy]-2-methylpropanoyl}amino)-8-azabicyclo[3.2.1]oct-8-yl]-N-(2,2,2-trifluoroethyl)pyridine-3-carboxamide], which IC50 is on record?
Answer: The IC50 was < 200 nM.

Question: With CC(C)(Oc1ccc(F)cc1C(F)(F)F)C(=O)N[C@H]1C[C@H]2CC[C@@H](C1)N2c1ccc(C(N)=O)cn1 [Example 168, 6-{3-endo-[(2-{[4-fluoro-2-(trifluoromethyl)phenyl]oxy}-2-methylpropanoyl)amino]-8-azabicyclo[3.2.1]oct-8-yl}pyridine-3-carboxamide] as the molecule, how does the IC50 read?
Answer: Its IC50 is < 200 nM.

Question: For CC(C)(Oc1ncc(C(F)(F)F)cc1Cl)C(=O)N[C@H]1C[C@H]2CC[C@@H](C1)N2c1ccc(S(C)(=O)=O)cn1 [Example 248, 2-{[3-chloro-5-(trifluoromethyl)pyridin-2-yl]oxy}-2-methyl-N-{8-[5-(methylsulfonyl)pyridin-2-yl]-8-azabicyclo[3.2.1]oct-3-endo-yl}propanamide], which IC50 is on record?
Answer: The IC50 was < 2000 nM.

Question: How did the IC50 turn out when CC(C)(Oc1cc(Cl)c(F)cc1Cl)C(=O)N[C@H]1C[C@H]2CC[C@@H](C1)N2c1ccc(C(=O)NCC(F)(F)F)cn1 [Example 98, 6-[3-endo-({2-[(2,5-dichloro-4-fluorophenyl)oxy]-2-methylpropanoyl}amino)-8-azabicyclo[3.2.1]oct-8-yl]-N-(2,2,2-trifluoroethyl)pyridine-3-carboxamide] was run?
Answer: The IC50 was < 200 nM.

Question: Which IC50 does the source give for CC(C)NC(=O)c1ccc(N2[C@@H]3CC[C@H]2C[C@@H](NC(=O)C(C)(C)Oc2ccc(F)c(F)c2)C3)nc1 [Example 85, 6-[3-endo-({2-[(3,4-difluorophenyl)oxy]-2-methylpropanoyl}amino)-8-azabicyclo[3.2.1]oct-8-yl]-N-(1-methylethyl)pyridine-3-carboxamide] here?
Answer: The IC50 was < 2000 nM.

Question: Which IC50 does the source give for CC(C)(Oc1cc(OCCN2CCCC2)c(Cl)cc1Cl)C(=O)N[C@H]1C[C@H]2CC[C@@H](C1)N2c1ccc(C(=O)NCC(F)(F)F)cn1 [Example 405, 6-(3-endo-(2-(2,4-dichloro-5-(2-(pyrrolidin-1-yl)ethoxy)phenoxy)-2-methylpropanamido)-8-azabicyclo[3.2.1]octan-8-yl)-N-(2,2,2-trifluoroethyl)nicotinamide] here?
Answer: Its IC50 is < 200 nM.

Question: Which IC50 does the source give for COc1ccc(OC(C)(C)C(=O)N[C@H]2C[C@H]3CC[C@@H](C2)N3c2ccc(S(C)(=O)=O)cn2)cc1 [Example 180, 2-methyl-2-{[4-(methyloxy)phenyl]oxy}-N-{8-[5-(methylsulfonyl)pyridin-2-yl]-8-azabicyclo[3.2.1]oct-3-endo-yl}propanamide] here?
Answer: Its IC50 is < 200 nM.

Question: For CC(C)(Oc1ccc(Cl)cc1Cl)C(=O)N[C@H]1C[C@H]2CC[C@@H](C1)N2Cc1cccc(C(N)=O)c1 [Example 291, 3-{[3-endo-({2-[(2,4-dichlorophenyl)oxy]-2-methylpropanoyl}amino)-8-azabicyclo[3.2.1]oct-8-yl]methyl}benzamide], which IC50 is on record?
Answer: Its IC50 is < 2000 nM.

Question: Which IC50 does the source give for CC(C)(Oc1ccc2ccccc2c1Cl)C(=O)N[C@H]1C[C@H]2CC[C@@H](C1)N2c1ccc(C(N)=O)cn1 [Example 271, 6-[3-endo-({2-[(1-chloronaphthalen-2-yl)oxy]-2-methylpropanoyl}amino)-8-azabicyclo[3.2.1]oct-8-yl]pyridine-3-carboxamide] here?
Answer: Its IC50 is < 200 nM.

Question: With CC(C)(Oc1ccc(C(F)(F)F)cc1)C(=O)N[C@H]1C[C@H]2CC[C@@H](C1)N2c1ccc(S(C)(=O)=O)cn1 [Example 243, 2-methyl-N-{8-[5-(methylsulfonyl)pyridin-2-yl]-8-azabicyclo[3.2.1]oct-3-endo-yl}-2-{[4-(trifluoromethyl)phenyl]oxy}propanamide] as the molecule, how does the IC50 read?
Answer: Its IC50 is < 2000 nM.

Question: CC(C)(Oc1ccc(Cl)cc1S(N)(=O)=O)C(=O)N[C@H]1C[C@H]2CC[C@@H](C1)N2c1ccc(C(=O)NCC(F)(F)F)cn1 [Example 388, 6-(3-endo-{[2-(4-chloro-2-sulfamoylphenoxy)-2-methylpropanoyl]amino}-8-azabicyclo[3.2.1]oct-8-yl)-N-(2,2,2-trifluoroethyl)pyridine-3-carboxamide] was tested. Which IC50 did it give?
Answer: Its IC50 is < 2000 nM.

Question: With CC(C)(Oc1cc(OC(C)(C)C(=O)N[C@H]2C[C@H]3CC[C@@H](C2)N3c2ccc(C(=O)NCC(F)(F)F)cn2)c(Cl)cc1Cl)C(=O)O [Example 414, 2-(2,4-dichloro-5-(2-methyl-1-oxo-1-(8-(5-(2,2,2-trifluoroethylcarbamoyl)pyridin-2-yl)-8-azabicyclo[3.2.1]octan-3-endo-ylamino)propan-2-yloxy)phenoxy)-2-methylpropanoic acid] as the molecule, how does the IC50 read?
Answer: The IC50 was < 2000 nM.

Question: Which IC50 does the source give for CC(C)(Oc1ccc(Cl)cc1Cl)C(=O)NC1CC2CCC(C1)N2c1ccc(C(=O)N2CC[C@@H](O)C2)cn1 (stereo partly drawn) [Example 461, 2-(2,4-dichlorophenoxy)-n-[8-(5-{[(3r)-3-hydroxypyrrolidin-1-yl]carbonyl}pyridin-2-yl)-8-azabicyclo[3.2.1]oct-3-endo-yl]-2-methylpropanamide] here?
Answer: The IC50 was < 200 nM.

Question: With CC(C)(Oc1ccc(F)cc1C(F)(F)F)C(=O)N[C@H]1C[C@H]2CC[C@@H](C1)N2c1ccc(S(C)(=O)=O)cc1 [Example 250, 2-{[4-fluoro-2-(trifluoromethyl)phenyl]oxy}-2-methyl-N-{8-[4-(methylsulfonyl)phenyl]-8-azabicyclo[3.2.1]oct-3-endo-yl}propanamide] as the molecule, how does the IC50 read?
Answer: Its IC50 is < 200 nM.

Question: For CC(C)(Oc1ccc(Cl)cc1C(F)F)C(=O)N[C@H]1C[C@H]2CC[C@@H](C1)N2c1ccc(C(=O)NCC(F)(F)F)cn1 [Example 364, 6-[3-endo-({2-[4-chloro-2-(difluoromethyl)phenoxy]-2-methylpropanoyl}amino)-8-azabicyclo[3.2.1]oct-8-yl]-N-(2,2,2-trifluoroethyl)pyridine-3-carboxamide], which IC50 is on record?
Answer: Its IC50 is < 200 nM.

Question: Which IC50 does the source give for CC(C)(Oc1ccc(F)cc1C(F)(F)F)C(=O)N[C@H]1C[C@H]2CC[C@@H](C1)N2c1ccc(S(N)(=O)=O)cn1 [Example 177, N-{8-[5-(aminosulfonyl)pyridin-2-yl]-8-azabicyclo[3.2.1]oct-3-endo-yl}-2-{[4-fluoro-2-(trifluoromethyl)phenyl]oxy}-2-methylpropanamide] here?
Answer: The IC50 was < 200 nM.

Question: How did the IC50 turn out when CC(C)(Oc1ccc2ccccc2c1Cl)C(=O)N[C@H]1C[C@H]2CC[C@@H](C1)N2c1ccc(C(=O)NCC(F)(F)F)cn1 [Example 348, 6-[3-endo-({2-[(1-chloronaphthalen-2-yl)oxy]-2-methylpropanoyl}amino)-8-azabicyclo[3.2.1]oct-8-yl]-N-(2,2,2-trifluoroethyl)pyridine-3-carboxamide] was run?
Answer: Its IC50 is < 200 nM.

Question: With CC(C)(Oc1ccc(Cl)cc1S(C)(=O)=O)C(=O)N[C@H]1C[C@H]2CC[C@@H](C1)N2c1ccc(S(N)(=O)=O)cn1 [Example 293, N-{8-[5-(aminosulfonyl)pyridin-2-yl]-8-azabicyclo[3.2.1]oct-3-endo-yl}-2-{[4-chloro-2-(methylsulfonyl)phenyl]oxy}-2-methylpropanamide] as the molecule, how does the IC50 read?
Answer: The IC50 was < 2000 nM.
